Experimental data from ChEMBL document CHEMBL1201862, “PubChem BioAssay data set” (2004).
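Step 1: Grow cells in 96-well plates. Step 2: Expose to compound for 48 hours at 5 concentrations. Step 3: Interpolate endpoints linearly; if unreached, use highest concentration. GI50: concentration for 50% inhibition of growth.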 Activity calls are given as the source filed them. Rule as the data show it: active = GI50 up to about 1.1 µM and inactive = higher.

Tests used:
Experiment in all cases: NCI anticancer screen, dose series, 48 h
A549 = test system: A549
CAKI-1 = test system: CAKI-1
COLO 205 = test system: COLO 205
EKVX = test system: EKVX
HCC 2998 = test system: HCC 2998
HCT-15 = test system: HCT-15
IGROV-1 = test system: IGROV-1
KM12 = test system: KM12
LOX IMVI = test system: LOX IMVI
NCI-H23 = test system: NCI-H23
OVCAR-3 = test system: OVCAR-3
OVCAR-5 = test system: OVCAR-5
OVCAR-8 = test system: OVCAR-8
SK-OV-3 = test system: SK-OV-3
SN12C = test system: SN12C
SW-620 = test system: SW-620
UACC-62 = test system: UACC-62
M14 = test system: M14
Malme-3M = test system: Malme-3M
TK-10 = test system: TK-10

Row | Compound | GI50 (A549) | GI50 (CAKI-1) | GI50 (COLO 205) | GI50 (EKVX) | GI50 (HCC 2998) | GI50 (HCT-15) | GI50 (IGROV-1) | GI50 (KM12) | GI50 (LOX IMVI) | GI50 (NCI-H23) | GI50 (OVCAR-3) | GI50 (OVCAR-5) | GI50 (OVCAR-8) | GI50 (SK-OV-3) | GI50 (SN12C) | GI50 (SW-620) | GI50 (UACC-62) | GI50 (M14) | GI50 (Malme-3M) | GI50 (TK-10)
1 | CNC(=O)C(C)C1CCC2(C)C=CC(=O)C(C)=C2C1O (stereo unspecified) | > 48.8 µM (inactive) | 28.5 µM (inactive) | > 47.2 µM (inactive) | > 100 µM (inactive) | 67.3 µM (inactive) | > 100 µM | > 55.2 µM (inactive) | > 100 µM (inactive) | > 100 µM (inactive) | > 100 µM (inactive) | > 100 µM (inactive) | > 100 µM (inactive) | > 49.4 µM (inactive) | > 100 µM (inactive) | > 100 µM (inactive) | > 57.4 µM (inactive) | > 100 µM (inactive) |  |  | 
2 | COc1ccc(/C=C(\C2=NC(=O)CS2)c2nc3ccccc3[nH]2)cc1 | > 100 µM (inactive) | > 100 µM (inactive) | > 100 µM (inactive) | 38.4 µM (inactive) | < 0.01 µM (active) | 83.8 µM | 52.1 µM (inactive) | 35.2 µM (inactive) |  | 69.7 µM (inactive) | 22 µM (inactive) | 41.8 µM (inactive) | 46.8 µM (inactive) | 15.8 µM (inactive) | 52.4 µM (inactive) | > 100 µM (inactive) | > 100 µM (inactive) | 93.1 µM (inactive) | 69.3 µM (inactive) | > 100 µM (inactive)
3 | COC(=O)c1cc2c3c(cc(N(C)C)c2[nH]1)N(C(=O)c1cc2cc(OC)c(OC)c(OC)c2[nH]1)CC3CCl (stereo unspecified) | 0.00292 µM (active) | < 0.0025 µM (active) | 0.00557 µM (active) | 0.0146 µM (active) | 0.00948 µM (active) | 0.00468 µM | < 0.0025 µM (active) | 0.00267 µM (active) |  | 0.00381 µM (active) | 0.00396 µM (active) | 0.00776 µM (active) |  | 0.00738 µM (active) | 0.0114 µM (active) | < 0.0025 µM (active) | 0.00558 µM (active) | 0.00294 µM (active) | 0.00463 µM (active) | 0.00968 µM (active)
4 | COC(CC1(/C=C/O[Si](C(C)C)(C(C)C)C(C)C)C(=O)N(COCC[Si](C)(C)C)c2ccccc21)OC (stereo unspecified) | 36.3 µM (inactive) | 46.3 µM (inactive) | 66.8 µM (inactive) |  | 27.9 µM (inactive) | 36.6 µM | 24.5 µM (inactive) | 36.1 µM (inactive) | 20.8 µM (inactive) | 25.1 µM (inactive) | 13.1 µM (inactive) | 37.4 µM (inactive) | > 100 µM (inactive) | 20.8 µM (inactive) | 45.1 µM (inactive) | 37.2 µM (inactive) | 18.8 µM (inactive) | 27.2 µM (inactive) |  | 74.8 µM (inactive)
5 | COc1ccc(-c2nc(-c3cnccn3)n(Cc3ccccc3)n2)cc1 | > 100 µM (inactive) |  | > 100 µM (inactive) |  | > 100 µM (inactive) | > 100 µM | > 100 µM (inactive) | > 100 µM (inactive) | > 100 µM (inactive) | > 100 µM (inactive) | > 100 µM (inactive) | > 100 µM (inactive) | > 100 µM (inactive) | > 100 µM (inactive) | > 100 µM (inactive) | > 100 µM (inactive) | > 100 µM (inactive) | > 100 µM (inactive) |  | 
6 | c1ccc(N/N=C2\NN=C(c3ccccc3)CS2)cc1 | 4.78 µM (inactive) | 2.55 µM (inactive) |  | 12.4 µM (inactive) | 4.74 µM (inactive) | 4.59 µM | 15 µM (inactive) | 13.2 µM (inactive) | 4.39 µM (inactive) | 17.9 µM (inactive) | 14.9 µM (inactive) | 14.7 µM (inactive) | 5.27 µM (inactive) | 14.9 µM (inactive) | > 10 µM (inactive) | 12.1 µM (inactive) | 5.81 µM (inactive) | 6.73 µM (inactive) |  | 11.5 µM (inactive)
